One assay has as its system HCT-15. The assay can be described thus: Antiproliferative activity against human HCT-15 cells incubated for 72 hrs by microplate reader analysis. The settings on record: HCT-15, 72 h. Format: functional, cell-based.
The next assay concerns DU-145. The assay is described as follows: Antiproliferative activity against human DU-145 cells incubated for 72 hrs by microplate reader analysis. Format: functional, cell-based. The settings on record: DU-145, 72 h.
In the next assay the test system is T47D. The assay can be described thus: Antiproliferative activity against human T47D cells incubated for 72 hrs by microplate reader analysis. Format: functional, cell-based.
The target in assay [1] is T1, DNA topoisomerase 1 (Homo sapiens) (UniProt P11387).
T1 sequence (whole entry): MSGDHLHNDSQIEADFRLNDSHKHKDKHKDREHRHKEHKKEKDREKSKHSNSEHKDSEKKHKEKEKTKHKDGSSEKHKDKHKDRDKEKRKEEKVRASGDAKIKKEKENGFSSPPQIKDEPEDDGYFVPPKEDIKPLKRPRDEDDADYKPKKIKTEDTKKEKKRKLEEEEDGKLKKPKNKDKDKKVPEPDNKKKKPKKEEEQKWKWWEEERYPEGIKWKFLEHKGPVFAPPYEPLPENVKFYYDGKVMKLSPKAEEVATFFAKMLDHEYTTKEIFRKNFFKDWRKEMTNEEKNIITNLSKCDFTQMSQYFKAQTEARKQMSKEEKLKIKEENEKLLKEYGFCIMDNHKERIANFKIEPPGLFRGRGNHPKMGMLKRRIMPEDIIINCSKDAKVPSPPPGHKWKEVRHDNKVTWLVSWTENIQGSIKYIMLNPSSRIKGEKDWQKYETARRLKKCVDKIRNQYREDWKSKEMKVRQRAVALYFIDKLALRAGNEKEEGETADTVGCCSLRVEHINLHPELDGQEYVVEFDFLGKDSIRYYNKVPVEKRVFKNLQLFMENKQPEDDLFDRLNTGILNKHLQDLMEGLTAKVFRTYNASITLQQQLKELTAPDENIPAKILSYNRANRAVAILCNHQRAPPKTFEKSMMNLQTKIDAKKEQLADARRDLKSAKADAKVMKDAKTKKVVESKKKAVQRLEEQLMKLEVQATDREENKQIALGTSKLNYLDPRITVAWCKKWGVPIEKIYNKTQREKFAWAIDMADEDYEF
The assay can be described thus: Inhibition of human DNA topoisomerase 1 at 100 uM using supercoiled pBR322 DNA as substrate incubated for 30 mins by EtBr staining based agarose gel electrophoresis method relative to control.

A further assay concerns HeLa. The assay is described as follows: Antiproliferative activity against human HeLa cells incubated for 72 hrs by microplate reader analysis. Format: functional, cell-based.
Assay [2] deals with DNA topoisomerase 2-alpha (Homo sapiens) (UniProt P11388). The assay can be described thus: Inhibition of human DNA topoisomerase 2 alpha at 100 uM using supercoiled pBR322 DNA as substrate incubated for 30 mins by EtBr staining based agarose gel electrophoresis method relative to control.
The target is the same in assay [3]. The assay is described as follows: Inhibition of human DNA topoisomerase 2 alpha at 20 uM using supercoiled pBR322 DNA as substrate incubated for 30 mins by EtBr staining based agarose gel electrophoresis method relative to control.
A further assay relates to Calf thymus DNA. The assay can be described thus: Displacement of EtBr from calf thymus DNA assessed as reduction in fluorescence intensity at 5 to 40 uM preincubated with EtBr for 30 mins followed by compound addition and measured after 30 mins by microplate reader analysis. Format: nucleic-acid assay. The settings on record: Bos taurus, dose 5-40 µM.

Activity calls are given as the source filed them. No cut-off for these calls is given here.

DNA topoisomerase 2-alpha (Homo sapiens), sequence (P11388 whole entry): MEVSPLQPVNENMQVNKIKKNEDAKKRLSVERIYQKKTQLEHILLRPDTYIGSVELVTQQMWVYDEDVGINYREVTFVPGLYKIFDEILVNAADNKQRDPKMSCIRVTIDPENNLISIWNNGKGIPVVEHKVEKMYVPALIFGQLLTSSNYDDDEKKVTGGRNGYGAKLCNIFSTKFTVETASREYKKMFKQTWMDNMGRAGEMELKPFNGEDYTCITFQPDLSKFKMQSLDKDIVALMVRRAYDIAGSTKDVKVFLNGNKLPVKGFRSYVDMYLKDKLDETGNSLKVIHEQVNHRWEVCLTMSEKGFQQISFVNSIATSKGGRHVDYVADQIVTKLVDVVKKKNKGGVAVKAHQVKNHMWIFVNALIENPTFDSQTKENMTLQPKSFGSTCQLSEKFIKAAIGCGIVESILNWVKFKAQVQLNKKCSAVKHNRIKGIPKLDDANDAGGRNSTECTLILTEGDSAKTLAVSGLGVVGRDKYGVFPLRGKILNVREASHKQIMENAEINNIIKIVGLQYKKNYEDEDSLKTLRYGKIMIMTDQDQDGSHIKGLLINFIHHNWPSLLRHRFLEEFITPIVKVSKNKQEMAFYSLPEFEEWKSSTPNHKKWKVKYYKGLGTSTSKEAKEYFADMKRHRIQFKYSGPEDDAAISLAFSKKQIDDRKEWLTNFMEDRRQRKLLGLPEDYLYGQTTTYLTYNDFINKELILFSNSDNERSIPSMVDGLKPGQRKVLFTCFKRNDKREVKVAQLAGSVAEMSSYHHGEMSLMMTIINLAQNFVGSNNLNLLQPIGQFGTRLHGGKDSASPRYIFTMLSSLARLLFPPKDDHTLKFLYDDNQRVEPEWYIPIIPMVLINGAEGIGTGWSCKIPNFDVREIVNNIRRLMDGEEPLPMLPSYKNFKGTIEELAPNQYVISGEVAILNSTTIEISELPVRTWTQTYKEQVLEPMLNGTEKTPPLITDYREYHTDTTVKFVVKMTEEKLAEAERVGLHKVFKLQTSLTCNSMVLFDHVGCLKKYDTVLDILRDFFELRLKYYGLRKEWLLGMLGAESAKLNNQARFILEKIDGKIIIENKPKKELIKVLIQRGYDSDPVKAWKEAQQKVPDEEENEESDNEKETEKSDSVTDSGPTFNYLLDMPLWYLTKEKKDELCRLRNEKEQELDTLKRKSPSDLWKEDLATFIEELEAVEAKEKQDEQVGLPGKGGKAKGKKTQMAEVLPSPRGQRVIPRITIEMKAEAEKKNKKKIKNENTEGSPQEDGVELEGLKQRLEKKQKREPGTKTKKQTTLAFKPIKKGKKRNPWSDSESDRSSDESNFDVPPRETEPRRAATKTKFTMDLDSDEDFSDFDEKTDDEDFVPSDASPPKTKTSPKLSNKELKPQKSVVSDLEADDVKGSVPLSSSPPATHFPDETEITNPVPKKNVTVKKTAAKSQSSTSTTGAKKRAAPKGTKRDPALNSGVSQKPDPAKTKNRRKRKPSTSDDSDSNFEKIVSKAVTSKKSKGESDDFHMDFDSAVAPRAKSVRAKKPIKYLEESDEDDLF

Take `Oc1cccc(-c2c3c(nc4c2Cc2c(O)cccc2-4)-c2cccc(O)c2C3)c1`: the IC50 with HCT-15, with DU-145, in the assay on T47D and in the assay with HeLa was more than 50 µM in each case. Also, the inhibition (commonly the relative decrease from the control value, in per cent) in assay [1] was -0%; in assay [2], 21.2%.

Take `Oc1ccc(-c2c3c(nc4c2Cc2c(F)cccc2-4)-c2cccc(F)c2C3)cc1`: the IC50 with HCT-15, with DU-145, in the assay on T47D and in the assay on HeLa was more than 50 µM each time. Besides, the inhibition in assay [1] is -0%; in assay [3] it was 2.5%; in assay [2] it was 41.5%.

Consider `CC[C@@]1(O)C(=O)OCc2c1cc1n(c2=O)Cc2cc3ccccc3nc2-1` [CAMPTOTHECIN], for which the IC50 (commonly the concentration needed to halve the response being measured) with DU-145 is 0.61 µM. In other words, the sub-micromolar range.

As for `Oc1ccc2c(c1)-c1nc3c(c(-c4cccs4)c1C2)Cc1ccc(O)cc1-3`, the IC50 turned out to be 0.45 µM in the assay on HCT-15, 0.96 µM in the assay with DU-145, 0.17 µM with T47D and 0.93 µM in the assay with HeLa. Moreover, the inhibition in assay [1] turned out to be 0.4%; in assay [3] it was 4.7%; in assay [2] it was 59.5%.

In the case of `Oc1ccc2c(c1)-c1nc3c(c(-c4ccccc4O)c1C2)Cc1ccc(O)cc1-3`, the IC50 was 3.86 µM with HCT-15, 7.86 µM with DU-145, 8.86 µM with T47D and 5.39 µM in the assay on HeLa. Moreover, the inhibition in assay [3] stood at 65.9%; in assay [2] it was 90.3%.

For `Oc1cccc2c1-c1nc3c(c(-c4ccccc4OC(F)(F)F)c1C2)Cc1cccc(O)c1-3`, the IC50 in the assay with HCT-15 came to 0.93 µM; with DU-145, 0.87 µM; in the assay on T47D it was 0.05 µM; with HeLa it was 3.23 µM. The inhibition in assay [1] was -0%; in assay [3] it was 1.6%; in assay [2] it was 84.8%.

As to `Oc1cccc(-c2c3c(nc4c2Cc2cccc(O)c2-4)-c2c(O)cccc2C3)c1`, the IC50 with HCT-15 came out at 0.96 µM; in the assay on DU-145 it was 2.58 µM; in the assay on T47D it was 6.84 µM; in the assay on HeLa, 0.87 µM. For the same compound, in assay [2], the inhibition was found to be 26%.

As to `Oc1ccc2c(c1)Cc1c-2nc2c(c1-c1cccc(F)c1)Cc1cc(O)ccc1-2`, the IC50 in the assay on HCT-15, with DU-145, with T47D and in the assay with HeLa was more than 50 µM throughout. In addition, the inhibition is -0% in assay [1], 3.2% in assay [3] and 96.5% in assay [2].

In the case of `Oc1ccccc1-c1c2c(nc3c1Cc1cccc(O)c1-3)-c1c(O)cccc1C2`, the IC50 amounted to 4.84 µM with HCT-15, 1.81 µM in the assay on DU-145, 3.82 µM with T47D and 1.56 µM in the assay with HeLa. In assay [2], this compound came in with an inhibition of -0%.

On to `Oc1cccc(-c2c3c(nc4c2Cc2ccc(O)cc2-4)-c2cc(O)ccc2C3)c1`, for which the IC50 in the assay on HCT-15, with DU-145, in the assay with T47D and in the assay on HeLa was more than 50 µM in each case. This compound also came in with an inhibition in assay [2] of 22.5%.

On to `COc1cc(NS(C)(=O)=O)ccc1Nc1c2ccccc2nc2ccccc12`, for which, in the assay on Calf thymus DNA, the outcome was Active.

Take `Oc1ccc(-c2c3c(nc4c2Cc2ccc(C(F)(F)F)cc2-4)-c2cc(C(F)(F)F)ccc2C3)cc1`: the IC50 in the assay with HCT-15 was more than 50 µM; with DU-145, 2.57 µM; in the assay on T47D it was more than 50 µM; in the assay with HeLa it was more than 50 µM. Besides, the inhibition in assay [1] stood at 7.1%; in assay [3], 4.5%; in assay [2] it was 51.4%.

For the compound `COc1cccc2c1C(=O)c1c(O)c3c(c(O)c1C2=O)C[C@@](O)(C(=O)CO)C[C@@H]3O[C@H]1C[C@H](N)[C@H](O)[C@H](C)O1` [DOXORUBICIN], the IC50 was 3.53 µM in the assay with HCT-15, 5.53 µM with DU-145, 2.53 µM in the assay on T47D and 1.68 µM with HeLa.

Regarding `Oc1ccc(-c2c3c(nc4c2Cc2cc(O)ccc2-4)-c2ccc(O)cc2C3)cc1`, the IC50 in the assay with HCT-15 was more than 50 µM; with DU-145 it was more than 50 µM; in the assay with T47D, 6.38 µM; in the assay on HeLa, more than 50 µM. Also, the results for the inhibition in assay [3] and in assay [2] were 55.7% and 73.1%, respectively.

With `Oc1ccc(-c2c3c(nc4c2Cc2c(O)cccc2-4)-c2cccc(O)c2C3)cc1`, the IC50 in the assay with HCT-15 is 4.89 µM; in the assay with DU-145 it was 5.03 µM; with T47D, 3.34 µM; with HeLa, 0.94 µM. In assay [2], this compound came in with an inhibition of 13.9%.

`Oc1cccc2c1-c1nc3c(c(-c4ccsc4)c1C2)Cc1cccc(O)c1-3`: the IC50 in the assay on HCT-15, with DU-145, with T47D and in the assay with HeLa was more than 50 µM throughout. The inhibition in assay [1] is -0%; in assay [2] it was 13.4%.

As for `Oc1ccc2c(c1)Cc1c-2nc2c(c1-c1cccc(Cl)c1)Cc1cc(O)ccc1-2`, the IC50 in the assay with HCT-15, in the assay on DU-145, in the assay with T47D and with HeLa was more than 50 µM each time. The inhibition in assay [1] was -0%; in assay [3], 3.5%; in assay [2], 91.4%.

Consider `Oc1ccc(-c2c3c(nc4c2Cc2ccc(O)cc2-4)-c2cc(O)ccc2C3)cc1`, for which the IC50 is 27.8 µM in the assay with HCT-15, more than 50 µM with DU-145, 5.24 µM in the assay on T47D and 20.4 µM in the assay with HeLa. Further, the inhibition in assay [3] is 78%; in assay [2] it was 84.2%.

`Oc1ccc(-c2c3c(nc4c2Cc2cccc(O)c2-4)-c2c(O)cccc2C3)cc1`: the IC50 in the assay on HCT-15 is 0.95 µM; in the assay with DU-145 it was 0.89 µM; in the assay with T47D, 4.33 µM; in the assay with HeLa, 2.96 µM. In addition, the inhibition was 31.7% in assay [3] and 43.6% in assay [2].

For the compound `COc1cc([C@@H]2c3cc4c(cc3[C@@H](O[C@@H]3O[C@@H]5CO[C@@H](C)O[C@H]5[C@H](O)[C@H]3O)[C@H]3COC(=O)[C@H]23)OCO4)cc(OC)c1O` [ETOPOSIDE], the IC50 with HCT-15 stood at 1.97 µM; with DU-145, 9.87 µM; with T47D, 0.97 µM; in the assay on HeLa it was 3.38 µM.

Consider `Oc1cccc2c1Cc1c-2nc2c(c1-c1ccccc1)Cc1c(O)cccc1-2`, for which the IC50 in the assay on HCT-15 is 1.51 µM; in the assay with DU-145 it was 3.66 µM; with T47D, 1.12 µM; in the assay with HeLa, 0.59 µM. The results for the inhibition in assay [1], in assay [3] and in assay [2] were -0%, 1.6% and 100%, respectively.

For `Oc1cccc(-c2c3c(nc4c2Cc2cc(O)ccc2-4)-c2ccc(O)cc2C3)c1`, the IC50 in the assay with HCT-15, with DU-145, with T47D and with HeLa was more than 50 µM each time. The figures for the inhibition in assay [3] and in assay [2] were 40.8% and 56.8%, respectively.

As to `Oc1ccc2c(c1)-c1nc3c(c(-c4ccc(C(F)(F)F)cc4)c1C2)Cc1ccc(O)cc1-3`, the IC50 in the assay on HCT-15 worked out at 9.06 µM; with DU-145, 5.84 µM; in the assay with T47D, 5.8 µM; with HeLa, 10.5 µM. Moreover, the inhibition in assay [1] was -0%; in assay [2] it was 0.1%.

Take `Oc1ccc2c(c1)Cc1c-2nc2c(c1-c1ccccc1O)Cc1cc(O)ccc1-2`: the IC50 was 46.1 µM in the assay with HCT-15, 31.4 µM in the assay on DU-145, more than 50 µM in the assay with T47D and 22.5 µM in the assay with HeLa. Further, the inhibition in assay [3] stood at 7.5%; in assay [2], 93.3%.

As for `Oc1ccccc1-c1c2c(nc3c1Cc1c(O)cccc1-3)-c1cccc(O)c1C2`, the IC50 with HCT-15 is 8.69 µM; with DU-145 it was more than 50 µM; with T47D, 5.3 µM; with HeLa, 2.1 µM. The inhibition was found to be 41.8% in assay [3] and 77.1% in assay [2].

For `c1ccc(-c2c3c(nc4c2Cc2ccccc2-4)-c2ccccc2C3)cc1`, the IC50 in the assay with HCT-15, with DU-145, in the assay on T47D and with HeLa was more than 50 µM each time. For the same compound, the inhibition in assay [1] was -0%; in assay [2], 2.6%.
